The values that follow come from paper PMC9833666, “Designing and identifying β-hairpin peptide macrocycles with antibiotic potential” (Science Advances, 2023).

Where two headings read alike, the source gives them in different places. Bridge positions count the residues as written; N and C are the ends. Ends that are not written are not given here. Peptide text beside a SMILES is read from it. A value given as a limit tells only on which side of the number the result lay.

Data set [1] concerns Single-donor human red blood cells. Briefly: Hemolysis assay. The class given is cell-based. How it is done: Single-donor human red blood cells (Innovative Research, no. IWB3ALS) were washed in PBS and adjusted to a concentration of 1 × 10^9 cells/ml. Each peptide was added individually to 200 μl of cells at a concentration of either 300 μg/ml (SySA library) or 128 μg/ml (SySA-5 optimization library) in a 96-well polypropylene plate (Corning, 3879). PBS alone and 1% Triton X-100 were used for background normalization and 100% hemolysis, respectively. Each reaction was set up in triplicate. Plates were incubated for 3 hours at 37°C. Following incubation, samples were centrifuged at 800g for 20 min, and 100 μl of supernatant was transferred to a flat-bottom 96-well plate (Genesse, 25-104). Percent hemolysis for each sample was determined by normalizing the absorbance at 540 nm for each sample to the average background and dividing by the average absorbance for 1% Triton X-100 (100% hemolysis). Error bars represent 1 SD of triplicate samples.

The test system of the next data set is Escherichia coli W3110. The class given is cell-based. The conditions noted are these: for Ec W3110 MIC MH: E. coli W3110, MH medium; for Ec W3110 MIC RPMI: E. coli W3110, RPMI medium.
Setting [2] is: SyPA peptides, human red blood cells, 3 h 37°C, relative to 1% Triton X-100, peptide concentration not stated for SyPA, n=3.

Description for Escherichia coli W3110: MICs were performed by a modifiedClinical and Laboratory Standards Institute) procedure. […] Separately, E. coli W3110 or A. baumannii AB5075 was grown overnight in 5 ml of standard MH at 37°C. Cells from these cultures were diluted to a concentration of 5 × 10^5 to 6 × 10^5 cells/ml in either standard MH, MHII, RPMI, or fetal bovine serum, and 90 μl was added to each well of the 96-well plate containing diluted peptide. Plates were wrapped twice in parafilm and incubated at 37°C for 18 to 24 hours. Wells were examined by eye against wells with no bacteria for signs of growth. MICs were reported as the minimum concentration with no observable growth. In cases where triplicate samples differed, the concentration supported by the median of the three replicates was reported.

As for `CC[C@H](C)[C@@H]1NC(=O)[C@H](CCCNC(=N)N)NC(=O)[C@H](C(C)C)NC(=O)[C@@H](N)CSSC[C@@H](C(=O)O)NC(=O)[C@H](C(C)C)NC(=O)[C@H](CCC(N)=O)NC(=O)[C@H](C(C)C)NC(=O)[C@H](CO)NC(=O)[C@H](C(C)C)NC(=O)[C@H](CCCNC(=N)N)NC(=O)[C@H](C(C)C)NC(=O)[C@H](CCCNC(=N)N)NC(=O)[C@H](CCCNC(=N)N)NC(=O)[C@H](CCCNC(=N)N)NC(=O)[C@H](CCCNC(=N)N)NC(=O)[C@H](CC(N)=O)NC(=O)[C@H](CC(N)=O)NC(=O)[C@H](CC(C)C)NC(=O)[C@H](CCCNC(=N)N)NC1=O` [SyPA-6] (H-CVRIRLNNRRRRVRVSVQVC-OH; disulfide 1-20), the “%Hemo” value in data set [1] (setting [2]) was found to be 0.90%. Also, the “W3110 MIC” value worked out at 32 µg/mL in the data set with Escherichia coli W3110 (SyPA peptides, MH, replicate 1); 32 µg/mL in the data set with Escherichia coli W3110 (SyPA peptides, MH, replicate 2); 32 µg/mL in the data set with Escherichia coli W3110 (SyPA peptides, MH, replicate 3).

In the case of “CRVKINIDNRSRRVKLQVQC (disulfide 1-20 (inferred)) [SySA-6]”, the hemolysis in data set [1] stood at 0.66%. Further, in the data set with Escherichia coli W3110, the Ec W3110 MIC MH is greater than 256 µg/mL and the Ec W3110 MIC RPMI was greater than 256 µg/mL.

For the compound “CRIRININNRRGRLKLQVEC (disulfide 1-20 (inferred)) [SySA-76]”, the hemolysis in data set [1] worked out at 0.27%. In the data set with Escherichia coli W3110, the Ec W3110 MIC MH is greater than 256 µg/mL and the Ec W3110 MIC RPMI was greater than 256 µg/mL.

Take “CLTVRLNNRGGGVKISVEVC (disulfide 1-20 (inferred)) [SySA-59]”: the hemolysis in data set [1] is given as 0.32%. In the data set on Escherichia coli W3110, this compound displayed an Ec W3110 MIC MH greater than 256 µg/mL and an Ec W3110 MIC RPMI greater than 256 µg/mL.

Regarding “CVTVRVNNRGGRLKVSVEVC (disulfide 1-20 (inferred)) [SySA-56]”, the hemolysis in data set [1] was found to be 0.19%. In the data set on Escherichia coli W3110, this compound displayed an Ec W3110 MIC MH greater than 256 µg/mL and an Ec W3110 MIC RPMI greater than 256 µg/mL.

Take “CRIRIDIDNRGRTVRLEVQC (disulfide 1-20 (inferred)) [SySA-28]”: in data set [1], the hemolysis is 0.0423%. In the data set on Escherichia coli W3110, this compound displayed an Ec W3110 MIC MH greater than 256 µg/mL and an Ec W3110 MIC RPMI greater than 256 µg/mL.

Regarding “CVTIRVDNRGSRLKISVQVC (disulfide 1-20 (inferred)) [SySA-33]”, the hemolysis in data set [1] is listed as 0.26%. In addition, in the data set on Escherichia coli W3110, the Ec W3110 MIC MH was greater than 256 µg/mL and the Ec W3110 MIC RPMI is greater than 256 µg/mL.

Take “CRVRIDIDNRSRTLKLEVQC (disulfide 1-20 (inferred)) [SySA-64]”: the hemolysis in data set [1] was determined as 0.70%. In the data set on Escherichia coli W3110, this compound had an Ec W3110 MIC MH greater than 256 µg/mL and an Ec W3110 MIC RPMI greater than 256 µg/mL.

With “CVTVRVNNRGSRLKVSVEVC (disulfide 1-20 (inferred)) [SySA-18]”, the hemolysis in data set [1] is 0.60%. Besides, in the data set with Escherichia coli W3110, the Ec W3110 MIC MH is greater than 256 µg/mL and the Ec W3110 MIC RPMI was greater than 256 µg/mL.

On to “CRVKINVDNRSGRVKLELQC (disulfide 1-20 (inferred)) [SySA-69]”, for which, in data set [1], the hemolysis was 0.72%. In addition, in the data set on Escherichia coli W3110, the Ec W3110 MIC MH is greater than 256 µg/mL and the Ec W3110 MIC RPMI is greater than 256 µg/mL.

For the compound “CLTVRLDNRGRGLKISVEVC (disulfide 1-20 (inferred)) [SySA-60]”, the hemolysis in data set [1] is on record as 0.53%. In the data set with Escherichia coli W3110, this compound registered an Ec W3110 MIC MH greater than 256 µg/mL and an Ec W3110 MIC RPMI greater than 256 µg/mL.

As to `CC[C@H](C)[C@@H]1NC(=O)[C@H](CCCNC(=N)N)NC(=O)[C@H](CC(C)C)NC(=O)CNC(=O)[C@H](CO)NC(=O)[C@H](CCCNC(=N)N)NC(=O)[C@H](CCCNC(=N)N)NC(=O)[C@H](CC(N)=O)NC(=O)[C@H](CC(=O)O)NC(=O)[C@H](CC(C)C)NC(=O)[C@H](CCCNC(=N)N)NC(=O)[C@H](C(C)C)NC(=O)[C@H](CCCNC(=N)N)NC(=O)[C@H](C(C)C)NC(=O)[C@@H](N)CSSC[C@@H](C(=O)O)NC(=O)[C@H](C(C)C)NC(=O)[C@H](CCC(N)=O)NC(=O)[C@H](CC(C)C)NC(=O)[C@H](CO)NC1=O` [SyPA-3] (H-CVRVRLDNRRSGLRISLQVC-OH; disulfide 1-20), the “%Hemo” value in data set [1] is reported as 0.39%. For the same compound, in the data set with Escherichia coli W3110 (W3110), the “W3110 MIC” value is greater than 128 µg/mL.

As for “CRIRINIDNRSGTVRLEVQC (disulfide 1-20 (inferred)) [SySA-3]”, in data set [1], the hemolysis turned out to be 0.24%. In addition, in the data set on Escherichia coli W3110, the Ec W3110 MIC MH is greater than 256 µg/mL and the Ec W3110 MIC RPMI is greater than 256 µg/mL.

As to `CC[C@H](C)[C@@H]1NC(=O)[C@H](CC(N)=O)NC(=O)[C@H](C(C)C)NC(=O)[C@H](CCCNC(=N)N)NC(=O)[C@H](C(C)C)NC(=O)[C@H](CCCNC(=N)N)NC(=O)[C@@H](N)CSSC[C@@H](C(=O)O)NC(=O)[C@H](CCC(N)=O)NC(=O)[C@H](CC(C)C)NC(=O)[C@H](CCC(N)=O)NC(=O)[C@H](CC(C)C)NC(=O)[C@H](CCCNC(=N)N)NC(=O)[C@H](CC(C)C)NC(=O)[C@H]([C@@H](C)O)NC(=O)[C@H](CCCNC(=N)N)NC(=O)[C@H](CO)NC(=O)[C@H](CCCNC(=N)N)NC(=O)[C@H](CC(N)=O)NC(=O)[C@H](CC(=O)O)NC1=O` [SyPA-7] (H-CRVRVNIDNRSRTLRLQLQC-OH; disulfide 1-20), in data set [1], the “%Hemo” value came out at 1.48%. In addition, the “W3110 MIC” value in the data set on Escherichia coli W3110 (W3110) was greater than 128 µg/mL.

For the compound “CVRVRLDNRGGGLRISLEVC (disulfide 1-20 (inferred)) [SySA-2]”, the hemolysis in data set [1] was 0.57%. In the data set with Escherichia coli W3110, this compound had an Ec W3110 MIC MH greater than 256 µg/mL and an Ec W3110 MIC RPMI greater than 256 µg/mL.

For the compound `CC(C)C[C@@H]1NC(=O)[C@H](CCCNC(=N)N)NC(=O)[C@H](C(C)C)NC(=O)[C@H](CCCNC(=N)N)NC(=O)[C@H](C(C)C)NC(=O)[C@@H](N)CSSC[C@@H](C(=O)O)NC(=O)[C@H](C(C)C)NC(=O)[C@H](CCC(N)=O)NC(=O)[C@H](C(C)C)NC(=O)[C@H](CO)NC(=O)[C@H](C(C)C)NC(=O)[C@H](CCCNC(=N)N)NC(=O)[C@H](C(C)C)NC(=O)[C@H](CCCNC(=N)N)NC(=O)[C@H](CCCNC(=N)N)NC(=O)[C@H](CCCNC(=N)N)NC(=O)[C@H](CCCNC(=N)N)NC(=O)[C@H](CC(N)=O)NC(=O)[C@H](CC(N)=O)NC1=O` [SyPA-10] (H-CVRVRLNNRRRRVRVSVQVC-OH; disulfide 1-20), in data set [1] (setting [2]), the “%Hemo” value stood at 1.99%. Further, the “W3110 MIC” value in the data set on Escherichia coli W3110 (SyPA peptides, MH, replicate 2) is 16 µg/mL; in the data set on Escherichia coli W3110 (SyPA peptides, MH, replicate 3), 16 µg/mL.

Consider “CRVRVNINNRGGTVKLQLQC (disulfide 1-20 (inferred)) [SySA-13]”, for which the hemolysis in data set [1] came out at 0.91%. In addition, in the data set with Escherichia coli W3110, the Ec W3110 MIC MH is greater than 256 µg/mL and the Ec W3110 MIC RPMI was greater than 256 µg/mL.

Regarding “CLRVRVNDRGSGVKITVEVC (disulfide 1-20 (inferred)) [SySA-39]”, in data set [1], the hemolysis turned out to be 0.28%. In the data set on Escherichia coli W3110, this compound displayed an Ec W3110 MIC MH greater than 256 µg/mL and an Ec W3110 MIC RPMI greater than 256 µg/mL.

“CLTVRLDNRGSGLRITVEVC (disulfide 1-20 (inferred)) [SySA-44]”: in data set [1], the hemolysis is -0.0761%. Further, in the data set with Escherichia coli W3110, the Ec W3110 MIC MH was greater than 256 µg/mL and the Ec W3110 MIC RPMI was greater than 256 µg/mL.

For the compound “CRIKIDVDNRRRTLKLQLEC (disulfide 1-20 (inferred)) [SySA-74]”, the hemolysis in data set [1] was determined as 0.72%. In the data set with Escherichia coli W3110, this compound registered an Ec W3110 MIC MH greater than 256 µg/mL and an Ec W3110 MIC RPMI greater than 256 µg/mL.

For the compound “CRIRINVNNRGRTLKLEVQC (disulfide 1-20 (inferred)) [SySA-10]”, the hemolysis in data set [1] came to 0.40%. In the data set on Escherichia coli W3110, this compound came in with an Ec W3110 MIC MH greater than 256 µg/mL and an Ec W3110 MIC RPMI greater than 256 µg/mL.

Consider “CRIKVDINNRSGRVKLQVQC (disulfide 1-20 (inferred)) [SySA-20]”, for which the hemolysis in data set [1] was 0.42%. In the data set on Escherichia coli W3110, this compound displayed an Ec W3110 MIC MH greater than 256 µg/mL and an Ec W3110 MIC RPMI greater than 256 µg/mL.

Consider “CRVRINIDNRSGRVKLEVQC (disulfide 1-20 (inferred)) [SySA-87]”, for which the hemolysis in data set [1] amounted to 4.63%. Moreover, in the data set with Escherichia coli W3110, the Ec W3110 MIC MH is greater than 256 µg/mL and the Ec W3110 MIC RPMI is greater than 256 µg/mL.

For the compound “CRIRIDVNNRSGTLKLQVQC (disulfide 1-20 (inferred)) [SySA-36]”, the hemolysis in data set [1] was -0.0122%. In the data set with Escherichia coli W3110, this compound yielded an Ec W3110 MIC MH greater than 256 µg/mL and an Ec W3110 MIC RPMI greater than 256 µg/mL.
